From patent US20230227506A1, “Fatty Acid Complexes Of Coronavirus Spike Protein And Their Use” (priority 2020, published 2023)
“Also recorded” adds a separate entry of the source. Like-named read-outs stand apart in the source and are kept apart here.

Assays:
[1] = tested on: SARS-CoV-2 Spike protein; format: binding
[2] = tested on: SARS-CoV-2 Spike protein; format: cell-based
[3] = molecular target: T1, SARS-CoV-2 Spike Protein receptor binding domain (RBD) (Severe acute respiratory syndrome coronavirus 2, UniProt P0DTC2)
T1 construct: SARS-CoV-2 RBD (amino acids R319 to F541); made in house; host or cells: Hi5 insect cells, MultiBac baculovirus

[4] = tested on: coronaviruses; conditions: reference (4); cited from earlier work
[5] = tested on: Caco-2-ACE2 cells; conditions: 50 uM linoleic acid
[6] = cited from earlier work
[7] = tested on: SARS-CoV-2 S glycoprotein; format: binding
[8] = tested on: SARS-CoV-2 reporter virus (rSARS-CoV-2/Wuhan/ORF7-tGFP); format: cell-based

CCCCCCCCCCCCCCCC(=O)O [PA, palmitic acid]
Binding of FFA in Spike protein verified by LC-MS/MS [1]: not
Minivirus-ACE2 cell binding compared to ApoS Miniviruses [2]: did not significantly reduce

CCCCCCCC/C=C\CCCCCCCC(=O)O [OA, oleic acid]
Binding to immobilized RBD quantified by SPR [3]: High affinity binding
Binding of FFA in Spike protein verified by LC-MS/MS [1]: successfully verified
Minivirus-ACE2 cell binding compared to ApoS Miniviruses [2]: able to reduce

CCCCC/C=C\C/C=C\C/C=C\C/C=C\CCCC(=O)O [AA, arachidonic acid]
Virus replication on exogenous supplement [4]: suppressed virus replication
Minivirus-ACE2 cell binding compared to ApoS Miniviruses [2]: able to reduce

CCCCC/C=C\C/C=C\CCCCCCCC(=O)O [LA, linoleic acid]
Cell death of treated infected cells [5]: significant cell death was not observed
Virus replication on exogenous supplement [4]: suppressed virus replication
Binding to immobilized RBD quantified by SPR [3]: high affinity binding
Binding of FFA in Spike protein verified by LC-MS/MS [1]: successfully verified
Water solubility [6]: about 100 mg/l
Water solubility (in words) [6]: extremely low water solubility
Water solubility (in words) ([6]; listed as Linoleic Acid): virtually insoluble in water
Binding to S in the trimer seen by cryo-EM [7]: tightly binds
Effect on SARS-CoV-2 replication factories [8]: disrupted; also recorded: wrecked
Effect on viral particles [8]: visible deformation and destruction
Minivirus-ACE2 cell binding compared to ApoS Miniviruses [2]: able to reduce
